These results are taken from ChEMBL document CHEMBL1151974, “Sesquiterpenoids and phenylpropanoids from pericarps of Illicium oligandrum” (2009).

The first assay relates to SH-SY5Y. The experiment in a line: Neuroprotective activity against H2O2-induced human SH-SY5Y cell damage assessed as increase in cell viability at 1 uM pretreated 2 hrs before H2O2 challenge relative to control. The assay is classed as functional.
With `C[C@]12COC(=O)C[C@@]3(CC(=O)[C@]1(C)O)[C@]2(O)CC[C@]3(C)O`, the Activity is 2.76%.
Same read-out and setting: next, `C[C@@]12COC(=O)[C@]1(C)[C@@H](O)[C@]13CC(=O)O[C@@]1(C)CC[C@]23O` [ANISLACTONE B]: 12.55%.

The test system of a further assay is SH-SY5Y. As to the kind of experiment: Neuroprotective activity against H2O2-induced human SH-SY5Y cell damage assessed as increase in cell viability at 10 uM pretreated 2 hrs before H2O2 challenge relative to control. Format: functional.
For the compound `COc1ccc([C@@H](O)[C@H](C)O)cc1` (relative stereo) [ERYTHRO ANETHOLE GLYCOL], the Activity is 7.29%.
For the compound `COc1ccc([C@@H]2O[C@@H]3[C@@H](O[C@H]2C)O[C@H](CO)[C@@H](O)[C@@H]3O)cc1` [OLIGANDRUMIN E], the Activity was 6.42%.
On the same count and under the same terms, next, VITAMIN E: 7.16%; `C[C@@H]1[C@H](O)C[C@]23OC(=O)C[C@]12C[C@]1(O)OC[C@]3(C)[C@@H]1C` [PSEUDOMAJUCIN]: 2.83%.
